Measurements taken from PubChem BioAssay (NCI).
Several values for one entry are separate records, joined by “and”; a condition that tells them apart may be missing. Equal entries are not always repeated.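 Where inhibition never reached the appropriate level, the endpoint shown equals the highest concentration tested. Otherwise, values were interpolated linearly from a five-concentration, 48-hour dose response in 96-well plates. GI50 marks 50% less growth. TGI is the concentration that stops growth completely.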

What was measured:
Test in all cases: NCI anticancer screen, dose series, 48 h
[1] = tested on: CAKI-1 renal
[2] = tested on: CCRF-CEM leukemia
[3] = tested on: K-562 leukemia
[4] = tested on: MCF7 breast
[5] = tested on: MDA-MB-231 breast
[6] = tested on: NCI-H23 lung
[7] = tested on: OVCAR-4 ovarian
[8] = tested on: OVCAR-5 ovarian
[9] = tested on: SNB-19 CNS
[10] = tested on: SNB-75 CNS

O=C1c2cccc3cccc(c23)C(=O)N1CC#Cc1ccc2c3c(cccc13)C(=O)N(CCN1CCNCC1)C2=O
GI50 [1]: 2720 nM | TGI [1]: 10.5 µM | GI50 [2]: 2010 nM | TGI [2]: 5.06 µM | GI50 [3]: 1160 nM | TGI [3]: 2.75 µM | GI50 [4]: 1800 nM | TGI [4]: 3.72 µM | GI50 [5]: 1850 nM | TGI [5]: 3.67 µM | GI50 [6]: 2380 nM | TGI [6]: 5.74 µM | GI50 [7]: 1930 nM | TGI [7]: 3.82 µM | GI50 [8]: 2820 nM | TGI [8]: 10.3 µM | GI50 [9]: 1960 nM | TGI [9]: 4.18 µM | GI50 [10]: 4490 nM | TGI [10]: 19.9 µM

Oc1[nH]c2ccc(Cl)cc2c1/C=c1/ccc2c(c1)N=C(c1ccc(C(F)(F)F)cc1)N=2
GI50 [1]: 2740 nM | TGI [1]: 9.55 µM | GI50 [2]: 2430 nM | TGI [2]: 6.96 µM | GI50 [3]: 2600 nM | TGI [3]: 7.73 µM | GI50 [4]: 2250 nM | TGI [4]: 7.64 µM | GI50 [5]: 1750 nM | TGI [5]: 3.63 µM | GI50 [6]: 3080 nM | TGI [6]: 13.6 µM | GI50 [7]: 2730 nM | TGI [7]: 11.4 µM | GI50 [8]: 3100 nM | TGI [8]: 12.3 µM | GI50 [9]: 3120 nM | TGI [9]: 17 µM | GI50 [10]: 2030 nM | TGI [10]: 7.51 µM

CCN1CCN(CC(=O)Nc2nc3ccc(NCc4ccc(C)cc4)cc3s2)CC1
GI50 [1]: 3480 nM | TGI [1]: 10.5 µM | GI50 [2]: 1490 nM | TGI [2]: 6.3 µM | GI50 [3]: 949 nM | TGI [3]: 2.09 µM | GI50 [4]: 1810 nM | TGI [4]: 8.41 µM | GI50 [5]: 2720 nM | TGI [5]: 10 µM | GI50 [6]: 5910 nM | TGI [6]: 13.9 µM | GI50 [7]: 6240 nM | TGI [7]: 16.2 µM | GI50 [8]: 5630 nM | TGI [8]: 13.4 µM | GI50 [9]: 5980 nM | TGI [9]: 13.5 µM | GI50 [10]: 2690 nM | TGI [10]: 9.42 µM

CCc1ccc(Oc2nccc(-c3c(-c4ccc(F)cc4)ncn3C3CCNCC3)n2)cc1
GI50 [1]: 5500 nM | TGI [1]: 14.6 µM | GI50 [2]: 6770 nM | TGI [2]: 17.8 µM | GI50 [3]: 4640 nM | TGI [3]: 10.9 µM | GI50 [4]: 4390 nM | TGI [4]: 8.37 µM | GI50 [5]: 5160 nM | TGI [5]: 13.6 µM | GI50 [6]: 10700 nM | TGI [6]: 15.1 µM | GI50 [7]: 5020 nM | TGI [7]: 13 µM | GI50 [8]: 6450 nM | TGI [8]: 15.1 µM | GI50 [9]: 7840 nM | TGI [9]: 17.2 µM | GI50 [10]: 3580 nM | TGI [10]: 10.7 µM

CC1(C)CC(=O)C(CC2C(=O)c3ccccc3C2=O)C(=O)C1C(=O)C(=O)Nc1cccc2ccc(O)cc12 (stereo unspecified)
TGI [1]: > 100 µM | TGI [2]: > 100 µM | TGI [3]: > 100 µM | TGI [4]: > 100 µM | TGI [5]: > 100 µM | TGI [6]: > 100 µM | TGI [7]: > 100 µM | TGI [8]: > 100 µM | TGI [9]: > 100 µM | TGI [10]: > 100 µM

Nc1ncnc2c1nc(N)n2C1OC(CO)C(O)C1O (stereo unspecified)
GI50 [1]: 318 nM | TGI [1]: 1.59 µM | GI50 [2]: 1300 nM | TGI [2]: > 22.9 µM | GI50 [3]: 271 nM | TGI [3]: > 100 µM | GI50 [4]: 389 nM | TGI [4]: 10.4 µM | GI50 [5]: 518 nM | TGI [5]: 4.86 µM | GI50 [6]: 309 nM | TGI [6]: 2.23 µM | GI50 [7]: 1420 nM | TGI [7]: 7.16 µM | GI50 [8]: 221 nM | TGI [8]: 15.4 µM | GI50 [9]: 1340 nM | TGI [9]: 6.28 µM | GI50 [10]: 1880 nM | TGI [10]: 3.7 µM

COc1cc(-c2ccc(Nc3ccccc3C(=O)O)c(OC)c2)ccc1Nc1ccccc1C(=O)O
TGI [1]: > 71.1 µM | TGI [2]: 86.1 µM | TGI [3]: > 100 µM | TGI [4]: > 100 µM | TGI [5]: > 91.6 µM | TGI [6]: 71 µM | TGI [7]: > 100 µM | TGI [8]: > 87.5 µM | TGI [9]: > 100 µM | TGI [10]: 91.3 µM

CS(=O)/C(C#N)=C\C=C\c1cccc(Cl)c1 (stereo unspecified)
GI50 [1]: 2060 nM | TGI [1]: 13.4 µM | GI50 [2]: 2340 nM | TGI [2]: 18.7 µM | GI50 [3]: 2510 nM | TGI [3]: > 100 µM | GI50 [4]: 579 nM | TGI [4]: 5.72 µM | GI50 [5]: 2730 nM | TGI [5]: 11.7 µM | GI50 [6]: 1630 nM | TGI [6]: 4.96 µM | GI50 [7]: 3630 nM | TGI [7]: 21.1 µM | GI50 [9]: 1810 nM | TGI [9]: 5.54 µM | GI50 [10]: 7110 nM | TGI [10]: 37.4 µM

CCOC(=O)c1c(C(F)(F)F)n([O-])c2ccc(Cl)cc2[n+]1=O
GI50 [1]: 1350 nM | TGI [1]: 2.87 µM | GI50 [2]: 1770 nM | TGI [2]: 3.99 µM | GI50 [3]: 2200 nM | TGI [3]: 4.37 µM | GI50 [4]: 1980 nM | TGI [4]: 4.24 µM | GI50 [5]: 2010 nM | TGI [5]: 4.45 µM | GI50 [6]: 1710 nM | TGI [6]: 3.43 µM | GI50 [7]: 2160 nM | TGI [7]: 5.73 µM | GI50 [8]: 1760 nM | TGI [8]: 3.32 µM | GI50 [9]: 6210 nM | TGI [9]: 19.2 µM | GI50 [10]: 1430 nM | TGI [10]: 5.36 µM

N#Cc1ccc(N2Cc3cc(Cl)ccc3OC3=C2C(=O)N(Cc2ccc(F)cc2)C3=O)cc1
GI50 [1]: 186 nM | TGI [1]: 0.38 µM | GI50 [2]: 229 nM | TGI [2]: 1.09 µM | GI50 [3]: 313 nM | TGI [3]: 1.68 µM | GI50 [4]: 712 nM | TGI [4]: 3.03 µM | GI50 [5]: 636 nM | TGI [5]: 1.51 µM | GI50 [6]: 811 nM | TGI [6]: 2.7 µM | GI50 [7]: 206 nM | TGI [7]: 0.563 µM | GI50 [8]: 737 nM | TGI [8]: 1.93 µM | GI50 [9]: 1540 nM | TGI [9]: 9.24 µM | GI50 [10]: 558 nM | TGI [10]: 1.72 µM

O=C1c2ccccc2C(=O)c2c(NCCNCCO)ccc(NCCNCCO)c21
GI50 [1]: 2310 nM and 2420 nM and 4940 nM | TGI [1]: 45.2 µM and > 45.9 µM and > 100 µM | GI50 [2]: 156 nM and 461 nM and 264 nM | TGI [2]: 14.6 µM and 11.1 µM | GI50 [3]: 2470 nM and 2080 nM and 2380 nM | TGI [3]: > 32.1 µM and 33.3 µM and 11.4 µM | GI50 [4]: 47.9 nM and 69.6 nM and 69 nM | TGI [4]: 0.948 µM and 2.39 µM and 4.99 µM | GI50 [5]: 1560 nM and 1630 nM and 1520 nM | TGI [5]: 5.85 µM and 6.54 µM and 4.47 µM | GI50 [6]: 940 nM and 1430 nM and 1220 nM | TGI [6]: 4.54 µM and 8.5 µM and 5.81 µM | GI50 [7]: 896 nM and 1130 nM and 986 nM | TGI [7]: 4.87 µM and 4.02 µM and 4.54 µM | GI50 [8]: 2500 nM and 2290 nM and 2350 nM | TGI [8]: 9.5 µM and 10.9 µM and 11.5 µM | GI50 [9]: 372 nM and 625 nM and 584 nM | TGI [9]: 4.19 µM and 9.76 µM and 5.58 µM | GI50 [10]: 649 nM and 473 nM and 386 nM | TGI [10]: 3.43 µM and 2.52 µM and 2.46 µM

O=S(=O)(CC(O)C(Cl)(Cl)Cl)NNc1ccccc1 (stereo unspecified)
TGI [1]: > 100 µM | TGI [2]: > 100 µM | TGI [3]: > 100 µM | TGI [4]: > 100 µM | TGI [5]: > 100 µM | TGI [6]: > 100 µM | TGI [7]: > 100 µM | TGI [8]: > 100 µM | TGI [9]: > 100 µM | TGI [10]: > 100 µM

O=c1[nH]cc(CO)c(=O)[nH]1
GI50 [1]: > 100000 nM | TGI [1]: > 100 µM | GI50 [2]: > 100000 nM | TGI [2]: > 100 µM | GI50 [3]: > 100000 nM | TGI [3]: > 100 µM | GI50 [4]: > 100000 nM | TGI [4]: > 100 µM | GI50 [5]: > 100000 nM | TGI [5]: > 100 µM | GI50 [6]: > 100000 nM | TGI [6]: > 100 µM | GI50 [8]: > 100000 nM | TGI [8]: > 100 µM | GI50 [9]: > 100000 nM | TGI [9]: > 100 µM | GI50 [10]: > 100000 nM | TGI [10]: > 100 µM
